Laboratory results from patent US10889610B2, “Alpha-D-galactoside inhibitors of galectins” (GALECTO BIOTECH AB, priority 2016, dated 2021).

target: galectin-3 (Homo sapiens (Human), UniProt P17931); assay: Fluorescence anisotropy assay, galectin-3 affinity; type: binding; details: inhibition of galectin / fluorescein tagged saccharide probe interaction
Experimental: Anal. Biochem. 334: 36-47, (Sörme et al., 2004) and Monovalent interactions of Galectin-1 By Salomonsson, Emma; Larumbe, Amaia; Tejler, Johan; Tullberg, Erik; Rydberg, Hanna; Sundin, Anders; Khabut, Areej; Frejd, Torbjorn; Lobsanov, Yuri D.; Rini, James M.; et al, From Biochemistry (2010), 49(44), 9518-9532, (Salomonsson et al., 2010). […] 100 nM albumin was included as a carrier to prevent protein loss at such low concentration of galectin.

Sequence of galectin-3 (P17931 whole entry): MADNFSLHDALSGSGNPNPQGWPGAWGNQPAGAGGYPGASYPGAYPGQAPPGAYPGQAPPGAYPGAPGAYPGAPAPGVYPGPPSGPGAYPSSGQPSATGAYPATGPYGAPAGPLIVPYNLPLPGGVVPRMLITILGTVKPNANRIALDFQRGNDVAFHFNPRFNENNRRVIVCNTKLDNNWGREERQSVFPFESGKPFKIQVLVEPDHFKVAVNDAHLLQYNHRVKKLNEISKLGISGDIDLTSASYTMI

| Kd [µM] | Compound |
| --- | --- |
| 0.011 | N#Cc1ncc(Cl)cc1S[C@H]1O[C@H](CO)[C@H](O)[C@H](n2cc(-c3cc(F)c(Cl)c(F)c3)nn2)[C@H]1O [Example 13, 5-Chloro-2-cyano-3-pyridyl 3-deoxy-3-[4-(4-chloro-3,5-difluorophenyl)-1H-1,2,3-triazol-1-yl]-1-thio-α-D-galactopyranoside] |
| 0.027 | OC[C@H]1O[C@H](Sc2cncc(Cl)c2)[C@H](O)[C@@H](n2cc(-c3cc(F)c(Cl)c(Cl)c3)nn2)[C@H]1O [Example 18, 5-Chloro-3-pyridyl 3-deoxy-3-[4-(3,4-dichloro-5-fluorophenyl)-1H-1,2,3-triazol-1-yl]-1-thio-α-D-galactopyranoside] |
| 0.75 | OC[C@H]1O[C@H](Sc2ccc(Cl)c(Cl)c2)[C@H](O)[C@@H](n2cc(-c3cncc(F)c3)nn2)[C@H]1O [Example 20, 3,4-Dichlorophenyl 3-deoxy-3-[4-(5-fluoro-3-pyridyl)-1H-1,2,3-triazol-1-yl]-1-thio-α-D-galactopyranoside] |
| 0.028 | OC[C@H]1O[C@H](Sc2cncc(Cl)c2)[C@H](O)[C@@H](n2cc(-c3cc(F)c(Br)c(F)c3)nn2)[C@H]1O [Example 17, 5-Chloro-3-pyridyl 3-deoxy-3-[4-(4-bromo-3,5-difluorophenyl)-1H-1,2,3-triazol-1-yl]-1-thio-α-D-galactopyranoside] |
| 0.022 | N#Cc1ncc(Br)cc1S[C@H]1O[C@H](CO)[C@H](O)[C@H](n2cc(-c3cc(F)c(F)c(F)c3)nn2)[C@H]1O [Example 6, 5-Bromo-2-cyano-3-pyridyl 3-deoxy-3-[4-(3,4,5-trifluorophenyl)-1H-1,2,3-triazol-1-yl]-1-thio-α-D-galactopyranoside] |
| 0.018 | Cc1c(F)cc(-c2cn([C@@H]3[C@@H](O)[C@@H](Sc4cncc(Cl)c4)O[C@H](CO)[C@@H]3O)nn2)cc1F [Example 16, 5-Chloro-3-pyridyl 3-deoxy-3-[4-(3,5-difluoro-4-methylphenyl)-1H-1,2,3-triazol-1-yl]-1-thio-α-D-galactopyranoside] |
| 0.018 | N#Cc1ncc(S[C@H]2O[C@H](CO)[C@H](O)[C@H](n3cc(-c4cc(F)c(Cl)c(F)c4)nn3)[C@H]2O)cc1Cl [Example 10, 5-Chloro-6-cyano-3-pyridyl 3-deoxy-3-[4-(4-chloro-3,5-difluorophenyl)-1H-1,2,3-triazol-1-yl]-1-thio-α-D-galactopyranoside] |
| 0.016 | N#Cc1ncc(S[C@H]2O[C@H](CO)[C@H](O)[C@H](n3cc(-c4cc(F)c(Cl)c(F)c4)nn3)[C@H]2O)cc1Br [Example 12, 5-Bromo-6-cyano-3-pyridyl 3-deoxy-3-[4-(4-chloro-3,5-difluorophenyl)-1H-1,2,3-triazol-1-yl]-1-thio-α-D-galactopyranoside] |
| 0.086 | OC[C@H]1O[C@H](Sc2ccnc(Cl)c2)[C@H](O)[C@@H](n2cc(-c3cc(F)c(F)c(F)c3)nn2)[C@H]1O [Example 3, 2-Chloro-4-pyridyl 3-deoxy-3-[4-(3,4,5-trifluorophenyl)-1H-1,2,3-triazol-1-yl]-1-thio-α-D-galactopyranoside] |
| 0.011 | N#Cc1ncc(Br)cc1S[C@H]1O[C@H](CO)[C@H](O)[C@H](n2cc(-c3cc(F)c(Cl)c(F)c3)nn2)[C@H]1O [Example 11, 5-Bromo-2-cyano-3-pyridyl 3-deoxy-3-[4-(4-chloro-3,5-difluorophenyl)-1H-1,2,3-triazol-1-yl]-1-thio-α-D-galactopyranoside] |
| 0.031 | OC[C@H]1O[C@H](Sc2cncc(Cl)c2)[C@H](O)[C@@H](n2cc(-c3ccc(Cl)c(Cl)c3)nn2)[C@H]1O [Example 21, 5-Chloro-3-pyridyl 3-deoxy-3-[4-(3,4-dichlorophenyl)-1H-1,2,3-triazol-1-yl]-1-thio-α-D-galactopyranoside] |
| 0.022 | OC[C@H]1O[C@H](Sc2cncc(Cl)c2)[C@H](O)[C@@H](n2cc(-c3cc(F)c(Cl)c(F)c3)nn2)[C@H]1O [Example 9, 5-Chloro-3-pyridyl 3-deoxy-3-[4-(4-chloro-3,5-difluorophenyl)-1H-1,2,3-triazol-1-yl]-1-thio-α-D-galactopyranoside] |
| 0.027 | N#Cc1cnc(S[C@H]2O[C@H](CO)[C@H](O)[C@H](n3cc(-c4cc(F)c(F)c(F)c4)nn3)[C@H]2O)cc1Br [Example 1, 4-Bromo-5-cyano-2-pyridyl 3-deoxy-3-[4-(3,4,5-trifluorophenyl)-1H-1,2,3-triazol-1-yl]-1-thio-α-D-galactopyranoside] |
| 0.029 | N#Cc1ncc(Cl)cc1S[C@H]1O[C@H](CO)[C@H](O)[C@H](n2cc(-c3cc(F)c(F)c(F)c3)nn2)[C@H]1O [Example 4, 5-Chloro-2-cyano-3-pyridyl 3-deoxy-3-[4-(3,4,5-trifluorophenyl)-1H-1,2,3-triazol-1-yl]-1-thio-α-D-galactopyranoside] |
| 0.694 | OC[C@H]1O[C@H](Sc2ccc(Cl)c(Cl)c2)[C@H](O)[C@@H](n2cc(-c3cncc(Cl)c3)nn2)[C@H]1O [Example 22, 3,4-Dichlorophenyl 3-deoxy-3-[4-(5-chloro-3-pyridyl)-1H-1,2,3-triazol-1-yl]-1-thio-α-D-galactopyranoside] |
| 0.022 | N#Cc1ncc(S[C@H]2O[C@H](CO)[C@H](O)[C@H](n3cc(-c4cc(F)c(F)c(F)c4)nn3)[C@H]2O)cc1Br [Example 5, 5-Bromo-6-cyano-3-pyridyl 3-deoxy-3-[4-(3,4,5-trifluorophenyl)-1H-1,2,3-triazol-1-yl]-1-thio-α-D-galactopyranoside] |
| 0.12 | OC[C@H]1O[C@H](Sc2cc(Cl)ccn2)[C@H](O)[C@@H](n2cc(-c3cc(F)c(F)c(F)c3)nn2)[C@H]1O [Example 7, 4-Chloro-2-pyridyl 3-deoxy-3-[4-(3,4,5-trifluorophenyl)-1H-1,2,3-triazol-1-yl]-1-thio-α-D-galactopyranoside] |
| 0.18 | N#Cc1c(F)cc(-c2cn([C@@H]3[C@@H](O)[C@@H](Sc4cncc(Cl)c4)O[C@H](CO)[C@@H]3O)nn2)cc1F [Example 14, 5-Chloro-3-pyridyl 3-deoxy-3-[4-(4-cyano-3,5-difluorophenyl)-1H-1,2,3-triazol-1-yl]-1-thio-α-D-galactopyranoside] |
| 0.034 | OC[C@H]1O[C@H](Sc2cncc(Cl)c2)[C@H](O)[C@@H](n2cc(-c3ccc(Cl)c(F)c3)nn2)[C@H]1O [Example 19, 5-Chloro-3-pyridyl 3-deoxy-3-[4-(4-chloro-3-fluorophenyl)-1H-1,2,3-triazol-1-yl]-1-thio-α-D-galactopyranoside] |
| 0.057 | N#Cc1cnc(S[C@H]2O[C@H](CO)[C@H](O)[C@H](n3cc(-c4cc(F)c(F)c(F)c4)nn3)[C@H]2O)cc1Cl [Example 2, 4-Chloro-5-cyano-2-pyridyl 3-deoxy-3-[4-(3,4,5-trifluorophenyl)-1H-1,2,3-triazol-1-yl]-1-thio-α-D-galactopyranoside] |
| 0.097 | OC[C@H]1O[C@H](Sc2cncc(Cl)c2)[C@H](O)[C@@H](n2cc(-c3cc(F)c(C(F)(F)F)c(F)c3)nn2)[C@H]1O [Example 15, 5-Chloro-3-pyridyl 3-deoxy-3-[4-(3,5-difluoro-4-trifluoromethyl-phenyl)-1H-1,2,3-triazol-1-yl]-1-thio-α-D-galactopyranoside] |

target: galectin-1 (Homo sapiens (Human), UniProt P09382); assay: Fluorescence anisotropy assay, galectin-1 affinity; type: binding; details: inhibition of galectin / fluorescein tagged saccharide probe interaction
Experimental: The affinity of Example 1-22 for galectins were determined by a fluorescence anisotropy assay where the compound was used as an inhibitor of the interaction between galectin and a fluorescein tagged saccharide probe as described Sörme, P., Kahl-Knutsson, B., Huflejt, M., Nilsson, U. J., and Leffler H. (2004) Fluorescence polarization as an analytical tool to evaluate galectin-ligand interactions. Anal. Biochem. 334: 36-47, (Sörme et al., 2004) and Monovalent interactions of Galectin-1 By Salomonsson, Emma; Larumbe, Amaia; Tejler, Johan; Tullberg, Erik; Rydberg, Hanna; Sundin, Anders; Khabut, Areej; Frejd, Torbjorn; Lobsanov, Yuri D.; Rini, James M.; et al, From Biochemistry (2010), 49(44), 9518-9532, (Salomonsson et al., 2010). […] 100 nM albumin was included as a carrier to prevent protein loss at such low concentration of galectin.

Sequence of galectin-1 (P09382 whole entry): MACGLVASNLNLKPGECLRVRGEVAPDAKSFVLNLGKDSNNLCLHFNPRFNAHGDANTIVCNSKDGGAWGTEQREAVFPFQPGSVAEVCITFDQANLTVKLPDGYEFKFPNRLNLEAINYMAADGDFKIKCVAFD

| Kd [µM] | Compound |
| --- | --- |
| 7 | N#Cc1ncc(S[C@H]2O[C@H](CO)[C@H](O)[C@H](n3cc(-c4cc(F)c(Cl)c(F)c4)nn3)[C@H]2O)cc1Br [Example 12, 5-Bromo-6-cyano-3-pyridyl 3-deoxy-3-[4-(4-chloro-3,5-difluorophenyl)-1H-1,2,3-triazol-1-yl]-1-thio-α-D-galactopyranoside] |
| 2.6 | N#Cc1cnc(S[C@H]2O[C@H](CO)[C@H](O)[C@H](n3cc(-c4cc(F)c(F)c(F)c4)nn3)[C@H]2O)cc1Br [Example 1, 4-Bromo-5-cyano-2-pyridyl 3-deoxy-3-[4-(3,4,5-trifluorophenyl)-1H-1,2,3-triazol-1-yl]-1-thio-α-D-galactopyranoside] |
| 6.9 | OC[C@H]1O[C@H](Sc2cc(Cl)ccn2)[C@H](O)[C@@H](n2cc(-c3cc(F)c(F)c(F)c3)nn2)[C@H]1O [Example 7, 4-Chloro-2-pyridyl 3-deoxy-3-[4-(3,4,5-trifluorophenyl)-1H-1,2,3-triazol-1-yl]-1-thio-α-D-galactopyranoside] |

tested on: galectins; assay: not given; details: relative to lactose, all galectins; cited from earlier work

| Compound | affinity, times lower than lactose |
| --- | --- |
| O=C[C@H](O)[C@@H](O)[C@@H](O)[C@H](O)CO [D-galactose] | 50-100 times |

same assay, conditions: reviewed by Leffler 2001, Leffler et al. 2004; read-out: Kd, all galectins; cited from earlier work

| Compound | Kd [µM] |
| --- | --- |
| OC[C@H]1O[C@@H](O[C@H]2[C@H](O)[C@@H](O)C(O)O[C@@H]2CO)[C@H](O)[C@@H](O)[C@H]1O (some centres unmarked) [lactose] | 500 to 1000 |
